≈ marks a conversion by molar mass, not a printed value. Read-outs that look alike come from different tables or passages of the source.
Assays:
HepG2 cells [1] = assay: HepG2 cell proliferation assay (XTT); format: cell-based, human; conditions: Homo sapiens
Method: HepG2 cells were obtained from the American Type Culture Collection (ATCC). Normal hepatocyte pool of cells was acquired from Xenotech. Cryopreserved cells in DMEM containing 5% DMSO were thawed and diluted 10-fold in phenol red free DMEM media containing 10% fetal bovine serum, 100 μg/ml penicillin/streptomycin, supplemented with Glutamax™ and sodium pyruvate. Subsequently, cells were centrifuged at 20 g for 10 minutes. The cells were resuspended in the same media with added Revitacell® to a concentration of […]. Ninety-six well cell culture treated flat bottom plates were seeded with 7.5×10^3 cells in 100 μl and incubated at 37° C., 7.5% CO2, >95% relative humidity for 18 hours to allow cellular adhesion after which media was replaced with like media (DMEM, IMDM, Williams E) containing 1 to 20% FBS and various test compounds (10 μg/ml to 100 ng/ml). After 48 hours (2 doublings of cells), sodium; 2-(2-methoxy-4-nitro-5-sulfonatophenyl)-3-(2-methoxy-4-nitro-5-sulfophenyl)-N-phenyltetrazol-3-ium-5-carboximidate (XTT) (300 μg/ml) was added, and cells incubated for 2 hours. Formazan production was measured at 450 nm on a Varioskan lux spectrophotometer. Non-specific absorption was measured at 660 nm and subtracted from the reference measurement at 450 nm. Experiments were performed in triplicates (n=3). […]
The objectives of this example are to, first, establish the procedure of a two-component interaction study; and second, establish a method of analysis to identify potential interactions among the two components/compounds. […] Following 48 hours of incubation, the IC50 values of various mixtures were obtained and compared with the pure compound's IC50 values and predicted/calculated IC50 values for the various mixtures. […]
Samples from the serial dilutions were analyzed by LC-MS/MS to orthogonally confirm concentrations. […]
To assess potential interactions, the IC50 values for individual cannabinoids in the control lanes were calculated and used to predict and IC50 value for the summation of their individual components.

[2] = system: pool of normal hepatocytes (HC3_23); assay: Normal hepatocyte toxicity, Calcein-AM; format: cell-based; conditions: Homo sapiens, 48-hour incubation, William's E media
Method: To evaluate the safety margin of the compounds prior to clinical trials, the toxicity of the compounds toward a pool of normal hepatocytes was investigated in-house using a hepatocyte pool obtained from Xenotech (HC3_23). Cells were thawed and plated in 96 well, black walled, gamma-irradiated plates (100 μl) after reconstitution in William's E media with Gibco hepatocellular maintenance supplement. Following an 18-hour recovery period, the media was exchanged with the same media containing 9 serial dilutions of the test compound mixtures (8 to 2000 μg/ml). Experiments were performed in triplicate. Following a 48-hour incubation period, Calcein-AM was added to provide a final concentration of 7 ng/ml to each well and allowed to react for 60 minutes before readings were acquired (excitation 494 nm, emission 517 nm). Data were fit to sigmoidal curves using four-point logistic curve fitting software and the 50% inflection points used for IC50 values.

[3] = sorafenib, cited from earlier work
HepG2 cells [4] = assay: rtPCR gene expression analysis (TaqMan array card); format: cell-based, human; conditions: 6 h at IC50 concentration, relative to negative control
Method: Target cancer gene pathways were analyzed using a custom Taqman® array card exploring 90 unique genes associated with cancer related pathways (Kanehisa, Goto et al. 2010).
Two million HepG2 cells in IMDM media with 20% FBS, and 1% ethanol were seeded in T75 flasks and incubated at 37° C., 7.5% CO2 until 70-80% confluent (approx. […]). […] Untreated cells were included as a negative control. Glyceraldehyde-3-phosphate dehydrogenase (GAPDH) was included as an endogenous control and used for normalization of the data.
Following a 6-hour incubation with the test compounds, the RNA was extracted using Invitrogen's Dynabead mRNA DIRECT kit using the recommended protocol to provide 50 μL of a purified mRNA solution. Fifty μL of RT master mix was mixed into the mRNA solution and the mixture left to react at 37° C. for 60 minutes. Reverse transcriptase inactivation was performed at 95° C. for 5 minutes and the resulting cDNA samples were kept at 4° C. until use. Fifty-five microliters of TaqMan Fast Advance master mix were added to an equal amount of cDNA sample containing 1 μg/100 μl of cDNA, which was loaded into each card reservoir. The cards were centrifuged twice at 1200 RPM for 3 minutes in a Legend XFR centrifuge and the rtPCR reaction was conducted in a QuantStudio7 PCR instrument using the recommended settings with 40 amplification cycles. Data processing was done using ThermoFisher's Connect™ application.

SMILES: CNC(=O)c1cc(Oc2ccc(NC(=O)Nc3ccc(Cl)c(C(F)(F)F)c3)cc2)ccn1 [Sorafenib]
- IC50 (HepG2 cells [1]; IMDM media with 20% FBS and 1% ethanol, read-out: predetermined IC50 concentrations): 12 µM
- IC50 (HepG2 cells [1]; XTT, DMEM media with 20% FBS, 48 hour treatment, read-out: IC50 HepG2): 9.8 µg/mL
- IC50 [2]: 70.1 µg/mL (≈ 151 µM)
- Solubility, μg/ml FaSSIF ([3]; fasted simulated intestinal fluid, value marked [1]): 3.3 [1] μg/ml
- F (oral bioavailability) ([3]; value marked [1]): 0.38-0.49[1]
- ClH (Hepatic clearance) ([3]; value marked [3]): ~0.051-0.066[3] L/min
- ClTB (Total body clearance) ([3]; value marked [3]): 0.051-0.066[3] L/min
- Vd, ss (Volume of distribution at steady state) ([3]; value marked [3]): 1.01-1.3[3] L/kg
- t½ (Half-life) ([3]; value marked [3]): 14.09-18.23[3] hours
- ΔΔCt VEGFA (HepG2 cells [4]; Angiogenesis): −2.101
- ΔΔCt CAMK1 (HepG2 cells [4]; Ca Signaling): −1.249
- ΔΔCt BAD (HepG2 cells [4]; Cell Cycle): −1.712
- ΔΔCt BAX (HepG2 cells [4]; Cell Cycle): −1.835
- ΔΔCt BCL2L1 (HepG2 cells [4]; Cell Cycle): −1.67
- ΔΔCt BECN1 (HepG2 cells [4]; Cell Cycle): −1.627
- ΔΔCt CCND2 (HepG2 cells [4]; Cell Cycle): −2.012
- ΔΔCt CDK2 (HepG2 cells [4]; Cell Cycle): −1.072
- ΔΔCt CDK4 (HepG2 cells [4]; Cell Cycle): −1.315
- ΔΔCt CDK6 (HepG2 cells [4]; Cell Cycle): −1.273
- ΔΔCt MAX (HepG2 cells [4]; Cell Cycle): −1.278
- ΔΔCt MNT (HepG2 cells [4]; Cell Cycle): −1.155
- ΔΔCt CTNNB1 (HepG2 cells [4]; Cellular Adhesion): −1.355
- ΔΔCt MITF (HepG2 cells [4]; Drug Resistance): −2.782
- ΔΔCt TEAD2 (HepG2 cells [4]; HIPPO): −1.447
- ΔΔCt SMO (HepG2 cells [4]; Hedge Hog signaling): −1.125
- ΔΔCt STAT1 (HepG2 cells [4]; JAK-STAT): −1.284
- ΔΔCt ERBB2 (HepG2 cells [4]; MAP kinase): 2.729
- ΔΔCt MAP1LC3A (HepG2 cells [4]; MAP kinase): −1.658
- ΔΔCt MAP2K2 (HepG2 cells [4]; MAP kinase): −1.241
- ΔΔCt MAP3K1 (HepG2 cells [4]; MAP kinase): −2.162
- ΔΔCt MAPK8 (HepG2 cells [4]; MAP kinase): −1.245
- ΔΔCt RASA1 (HepG2 cells [4]; MAP kinase): −2.013
- ΔΔCt CRK (HepG2 cells [4]; PI3K pathway): −3.778
- ΔΔCt PIK3C2A (HepG2 cells [4]; PI3K pathway): −2.308
- ΔΔCt PIK3CA (HepG2 cells [4]; PI3K pathway): −1.501
- ΔΔCt PTEN (HepG2 cells [4]; PI3K pathway): −1.165
- ΔΔCt SMAD2 (HepG2 cells [4]; TGF signaling): −1.348
- ΔΔCt GSK3B (HepG2 cells [4]; Wnt signaling): −1.105
- ΔΔCt ROCK1 (HepG2 cells [4]; Wnt signaling): −1.495

Source: patent publication US20260232699A1, “COMPOSITIONS OF A CANNABINOID AND A KINASE INHIBITOR FOR THE TREATMENT OF CANCER” (SINOVEDA CANADA INC., priority 2023, published 2026)
